Test system: Gluconacetobacter hansenii ATCC 53582
Experiment: Effect of additives in waste textile glucose medium on bacterial cellulose production
Type: cell-based
Details: 14 days
Method: The bacterial strain Gluconacetobacter hansenii ATCC 53582 was grown in 500 mL of waste textile glucose medium at an incubation temperature of 28° C.-30° C., for 14 days, in a close-lid plastic box. Different experiments were carried out to test the effect of the addition of different additives (TiBALDH, Glycerol, Ascorbic Acid) in different concentration on the production of bacterial cellulose. At the end of the incubation, the amount of the wet bacterial cellulose obtained was determined. Comparisons of wet bacterial amount change (%) in Table 2, 3, 4, and 5 are based on data in Table 1.

[1] = additives marked + at 0.5% Vitamin C, 1% Glycerol, 0.25% TiBALDH in WTG medium

Compound | Wet BC amount change (Glycerol Concentration 0.5 % in WTG medium, compared with Table 1) | Wet BC amount change (Glycerol Concentration 1.0 % in WTG medium, compared with Table 1) | Wet BC amount change (Glycerol Concentration 2.0 % in WTG medium, compared with Table 1) | Wet BC amount change [1] | Wet BC amount change (Vitamin C Concentration 0.25 % in WTG medium, compared with Table 1) | Wet BC amount change (Vitamin C Concentration 0.50 % in WTG medium, compared with Table 1) | Wet BC amount change (Vitamin C Concentration 1.00 % in WTG medium, compared with Table 1) | Wet BC amount change (Vitamin C Concentration 2.00 % in WTG medium, compared with Table 1) | Wet BC amount change (Vitamin C Concentration 3.00 % in WTG medium, compared with Table 1) | Wet BC amount change (Vitamin C Concentration 4.00 % in WTG medium, compared with Table 1) | Wet BC amount change (TiBALDH Concentration 0.0050 % in WTG medium, compared with Table 1) | Wet BC amount change (TiBALDH Concentration 0.0250 % in WTG medium, compared with Table 1) | Wet BC amount change (TiBALDH Concentration 0.0500 % in WTG medium, compared with Table 1) | Wet BC amount change (TiBALDH Concentration 0.2500 % in WTG medium, compared with Table 1) | Wet BC amount change (TiBALDH Concentration 0.5000 % in WTG medium, compared with Table 1) | Wet BC amount change (TiBALDH Concentration 1.0000 % in WTG medium, compared with Table 1)
OCC(O)CO [Glycerol, glycerol] | 10.93% | 19.74% | 10.15% | 19.74% | – | – | – | – | – | – | – | – | – | – | – | –
O=C1O[C@H]([C@@H](O)CO)C(O)=C1O [Vitamin C, ascorbic acid] | – | – | – | 9.25% | 6.75% | 9.25% | 8.13% | 6.95% | 5.57% | 2.96% | – | – | – | – | – | –
Titanium (IV) bis-(ammonium lactato) dihydroxide [TiBALDH] | – | – | – | 55.30% | – | – | – | – | – | – | 7.04% | 18.10% | 24.13% | 55.30% | 17.10% | −26.79%
